{"source": "patent US6340783B1", "about": "“Rodent models of human amyloidoses” (University of Washington, priority 1992, dated 2002)", "key": {"[1]": {"molecular_target": "T1, Beta-Amyloid Protein (1-28) (Homo sapiens, UniProt P05067)", "T1 construct": "residues 1-28 of BAP or residues 597-624 of BAPP; purchased Bachem Inc., Torrance, Calif; host or cells: synthetic peptide", "T1 sequence (P05067 672-699 limits assumed)": "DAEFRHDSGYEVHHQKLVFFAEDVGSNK", "experiment": "Competitive inhibition of 125I-labeled HSPG binding to BAP (1-28) affinity column", "method": "^125I-labeled HSPGs in the presence of increasing concentrations of unlabeled GAGs, or large low density HSPG (from EHS sarcoma) were applied to an Affi-gel 10 column containing BAP (residues 1-28). After nonbound PGs were eluted from the column using TBS+0.1% TX-100, bound PGs were eluted with a step gradient using 15 ml of 1M MgCl2 in TBS+0.1% TX-100, followed by 15 ml of 4M MgCl2 in TBS+0.1% TX-100, and then 10 ml of 8M urea buffer containing 3M NaCl. […] Bars indicate standard error of the mean.\nIn order to test the specificity of HSPG binding to BAP (1-28), competitive inhibition experiments were also performed. 125-I labeled HSPGs (100,000-200,000 dpm) were mixed with (a) HSPG from EHS sarcoma (Mr approximately 700,000) (Kato et al., 1988) (gift of Dr. Koji Kimata, Aichi, Japan), (b) heparin from porcine intestinal mucosa (Mr˜11,000; Sigma, St. Louis, Mo.), (c) chondroitin-6-sulfate from shark cartilage (Mr˜59,000; Sigma, St. Louis, Mo.), or (d) […] dextran sulfate (Mr˜110,000; Pharmacia Fine Chemicals, Uppsala, Sweden). The samples were incubated on a rotator for 2 hours at room temperature and then applied to the BAP (1-28) column. Columns were run and eluted with step gradients (1 to 4 M MgCl2) as described above.\nPurified iodinated HSPGs were combined with various concentrations of unlabeled competing ligands and applied to a BAP (1-28) affinity column (FIG. 10)."}, "BAP (residues 1-28)": {"molecular_target": "T2, BAP (residues 1-28) (Homo sapiens, UniProt P05067)", "T2 construct": "residues 1-28 of BAP or residues 597-624 of BAPP; purchased Bachem Inc., Torrance, Calif; host or cells: synthetic peptide", "experiment": "Affinity column chromatography of labeled proteoglycans on BAP (1-28) Affi-gel 10 column", "format": "binding", "settings": "after heparitinase/heparinase digestion", "method": "Approximately 500,000 dpm of ^35S-sulfate labeled PGs isolated from the culture media of ECs were applied to Affi-gel 10 affinity columns containing approximately 0.45 mg of 1) residues 1-28 of BAP, 2) residues 410-429, a region of BAPP present in the extracellular domain, or 3) bovine serum albumin. The labeled PGs were left on the column for 1 hour, after which non-bound radiolabelled PGs were eluted with 25 ml (50 0.5 ml fractions) of TBS+0.1% TX-100 and collected on a fraction collector. Bound PGs were then eluted from the column with 15 mls of 4M MgCl2 in TBS+0.1% TX-100.\n0.5 mg or 1.0 mg of ligands consisting of 1) BAP (1-28) (Bachem Inc., Torrance, Calif.), 2) a peptide corresponding to residues 410-429 of the BAPP (gift of Dr. Dennis Selkoe, Boston, U.S.A.) or 3) bovine serum albumin (BSA fraction V, Boehringer, Mannheim Biochemical) were dissolved initially in 400 μl of double distilled water to which was added an equal volume of 0.2 M HEPES buffer (pH 7.5) containing 160 mM calcium chloride. The ligand solutions were added to 0.8-1.0 ml of Affi-gel 10 (Biorad, Richmond, Calif.) and coupling was allowed to proceed for 4 hours at 4° C., after which 1/10 volume of IM ethanolamine (pH 8.0) was added and incubation continued for an additional 1-2 hours to block remaining unreacted ester groups. Gel coupled ligand was then transferred to Biorad Econo-columns and washed with TBS in 0.1% Triton-X 100. To assess the amount of bound ligand, soluble (nonbound) protein remaining in the wash buffer was assayed. The affinity columns coupled approximately 90% of ligand initially applied (i.e. 0.45 mg or 0.90 mg).\n^35S-sulfate labeled PGs isolated from the culture media (360,000 dpm) of ECs and SMCs were applied to Affi-gel 10 columns containing 1) BAP (residues 1-28), 2) BAPP (residues 410-429) or 3) Bovine serum albumin. The labeled PGs were allowed to interact with the affinity gel for 1 hour (preliminary experiments indicated maximum binding efficiency at 1 hour) and non-bound radiolabelled PGs were eluted with 25 ml of TBS+0.1% Triton X-100 (TBS-TX 100). Bound PGs were eluted with either a single-step gradient using 15 mls of 4M MgCl2 in TBS-TX 100 or a linear gradient of 0 to 4M MgCl2 in TBS-TX 100. In some experiments, columns were further eluted with 15 ml of 8M urea in 50 mM Tris-HCl (pH 7.5), with 0.5% Triton X-100 and 3M NaCl. The radioactivity per fraction was determined by scintillation counting. Most experiments were repeated a minimum of three times. Recoveries of applied radioactivity from the affinity columns ranged from 80-95%."}, "fibronectin": {"molecular_target": "fibronectin (Homo sapiens, UniProt P02751)", "sequence (P02751 32-2477, species assumed)": "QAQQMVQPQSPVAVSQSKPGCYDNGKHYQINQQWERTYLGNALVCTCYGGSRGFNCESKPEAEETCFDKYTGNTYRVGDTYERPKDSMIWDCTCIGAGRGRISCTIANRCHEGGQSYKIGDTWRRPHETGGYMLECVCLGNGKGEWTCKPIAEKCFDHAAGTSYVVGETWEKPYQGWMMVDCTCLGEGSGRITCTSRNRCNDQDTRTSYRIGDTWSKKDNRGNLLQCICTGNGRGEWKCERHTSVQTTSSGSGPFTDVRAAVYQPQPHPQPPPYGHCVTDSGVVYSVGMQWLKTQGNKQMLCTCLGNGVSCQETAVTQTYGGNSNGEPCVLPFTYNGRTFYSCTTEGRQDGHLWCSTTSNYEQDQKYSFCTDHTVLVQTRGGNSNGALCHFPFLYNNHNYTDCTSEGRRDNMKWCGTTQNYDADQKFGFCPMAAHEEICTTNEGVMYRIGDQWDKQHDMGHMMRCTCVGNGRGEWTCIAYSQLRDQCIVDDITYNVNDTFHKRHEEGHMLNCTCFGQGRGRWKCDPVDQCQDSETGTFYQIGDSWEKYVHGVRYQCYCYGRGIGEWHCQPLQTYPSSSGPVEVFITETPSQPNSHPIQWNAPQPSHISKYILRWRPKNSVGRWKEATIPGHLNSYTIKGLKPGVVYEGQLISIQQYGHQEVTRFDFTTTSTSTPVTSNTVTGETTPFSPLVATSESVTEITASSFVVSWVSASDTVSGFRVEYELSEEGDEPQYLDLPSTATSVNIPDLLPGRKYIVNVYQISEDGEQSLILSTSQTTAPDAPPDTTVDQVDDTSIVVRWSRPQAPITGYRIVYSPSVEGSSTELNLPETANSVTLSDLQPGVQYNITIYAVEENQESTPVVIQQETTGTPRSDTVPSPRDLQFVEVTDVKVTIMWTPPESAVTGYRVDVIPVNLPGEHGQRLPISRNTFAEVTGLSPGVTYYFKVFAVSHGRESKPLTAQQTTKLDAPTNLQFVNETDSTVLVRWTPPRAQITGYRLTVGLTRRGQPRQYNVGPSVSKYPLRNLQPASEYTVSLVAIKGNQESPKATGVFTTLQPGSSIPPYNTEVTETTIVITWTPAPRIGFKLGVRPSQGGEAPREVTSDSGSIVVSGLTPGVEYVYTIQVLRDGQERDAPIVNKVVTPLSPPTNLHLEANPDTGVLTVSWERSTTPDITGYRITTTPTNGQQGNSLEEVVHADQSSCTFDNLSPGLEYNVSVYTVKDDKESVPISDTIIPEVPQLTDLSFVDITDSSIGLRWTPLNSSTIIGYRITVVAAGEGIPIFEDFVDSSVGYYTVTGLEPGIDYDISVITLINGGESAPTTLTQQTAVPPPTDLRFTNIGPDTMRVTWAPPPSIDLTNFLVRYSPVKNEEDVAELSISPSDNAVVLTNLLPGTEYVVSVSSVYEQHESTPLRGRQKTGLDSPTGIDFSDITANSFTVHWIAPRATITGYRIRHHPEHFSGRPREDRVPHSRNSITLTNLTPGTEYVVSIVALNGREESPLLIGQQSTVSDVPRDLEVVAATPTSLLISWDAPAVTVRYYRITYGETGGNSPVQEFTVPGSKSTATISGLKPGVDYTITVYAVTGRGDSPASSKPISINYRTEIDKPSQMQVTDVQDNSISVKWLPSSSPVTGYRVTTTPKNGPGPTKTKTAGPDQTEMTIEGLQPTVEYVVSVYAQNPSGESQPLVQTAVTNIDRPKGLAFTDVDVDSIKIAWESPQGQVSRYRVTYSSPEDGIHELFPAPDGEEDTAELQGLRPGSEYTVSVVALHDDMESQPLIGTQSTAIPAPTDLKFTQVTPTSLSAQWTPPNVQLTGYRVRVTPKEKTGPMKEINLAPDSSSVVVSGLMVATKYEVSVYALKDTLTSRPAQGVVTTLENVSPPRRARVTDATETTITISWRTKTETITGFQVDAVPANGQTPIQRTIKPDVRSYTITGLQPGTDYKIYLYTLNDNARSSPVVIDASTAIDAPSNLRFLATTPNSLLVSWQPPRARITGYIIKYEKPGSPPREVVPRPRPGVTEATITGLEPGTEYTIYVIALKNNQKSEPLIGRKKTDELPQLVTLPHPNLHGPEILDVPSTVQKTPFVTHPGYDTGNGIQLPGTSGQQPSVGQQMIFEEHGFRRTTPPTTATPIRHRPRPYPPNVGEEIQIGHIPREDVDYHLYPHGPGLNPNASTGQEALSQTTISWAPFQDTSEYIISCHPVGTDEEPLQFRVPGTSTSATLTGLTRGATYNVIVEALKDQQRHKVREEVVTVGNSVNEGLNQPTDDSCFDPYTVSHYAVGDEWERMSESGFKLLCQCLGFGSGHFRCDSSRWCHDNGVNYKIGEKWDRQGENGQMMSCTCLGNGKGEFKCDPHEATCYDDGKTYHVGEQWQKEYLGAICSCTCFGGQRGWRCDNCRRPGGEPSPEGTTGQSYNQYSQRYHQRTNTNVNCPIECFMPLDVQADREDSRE", "settings": "via the core protein; cited from earlier work"}, "[2]": {"tested_on": "HSPGs in AA amyloidotic mouse spleen", "experiment": "In situ binding of BAP (1-28) to AA amyloidotic tissue sections", "source_text": "Six micron sections of paraffin-embedded AA amyloidotic spleen and liver (gift of Dr. Robert Kisilevsky, Kingston, Canada) were used for the in situ binding studies. AA amyloid was induced in CBA/J female mice (6-8 weeks old) using amyloid enhancing factor and silver nitrate, as previously described (Axelrad et al., 1982; Snow and Kisilevsky, 1985).\nImmunostaining of tissue sections was accomplished using the avidin-biotin-immunoperoxidase method, employing the appropriate biotin-labeled secondary antibodies, followed by incubation with avidin-conjugated horseradish peroxidase complex (Vector Labs, Burlingame, Calif.). Peroxidase activity was produced by treatment with 3,3-diaminobenzidine as previously described (Snow et al., 1988a). For immunocytochemical staining, the primary antibody was used initially through a series of dilutions to obtain the best specificity with the least background staining. Only results using the optimal dilutions of primary antibody are reported.\nParaffin sections of mouse AA amyloidotic liver or spleen (obtained 4 days after initial AEF+ silver nitrate induction) were treated overnight at 4° C. with a 0.3 mg/ml or 0.5 mg/ml solution of a peptide corresponding to the extracellular domain of BAP (residues 1-28 of BAP or residues 597-624 of BAPP) (Bachem Inc., Torrance, Calif.) in Tris-buffered saline (TBS). After 18 hours, non-bound BAP was removed by extensive washing in 4 changes of TBS. Bound-BAP was then detected by immunostaining tissue sections with either of two BAP polyclonal antibodies as described above. […] These treatments included: 1) 0.50 units/ml of chondroitin ABC lyase (Seikagaku Kogyo Co. Ltd., through ICN Biomedicals) in 0.1 M enriched Tris-acetate buffer (pH 8.0) at 37° C. for 6 hours (Saitoh et al., 1968), 2) a solution of 20% nitrous acid: 33% acetic acid (1:1, volume/volume) incubated at room temperature for 6 hours (Snow et al., 1987) and 3) 10 units/ml of heparinase I and heparitinase I (Sigma, St. Louis, Mo.) in 0.20 M Tris-HCl buffer (pH 7.0) with 20 mM calcium acetate added, at 37° C. for 6 hours. […]"}, "[3]": {"tested_on": "β/A4 amyloid deposition in rat hippocampus", "experiment": "Rat infusion model of β/A4 amyloid deposition in hippocampus", "format": "in vivo", "method": "For infusion studies, all reagents were dissolved and stored at 4° C. the night prior to surgery. β/A4 (residues 1-40; Bachem California Inc., Torrance, Calif.; Lot #ZJ209) was initially dissolved at 10 mg/ml in 35% acetonitrile (stock solution), with the final diluted concentration of acetonitrile less than 3% in animals infused with β/A4 or its vehicle (see below). Perlecan (basement membrane derived HSPG) and heparan sulfate (HS) GAGs were isolated and purified from the mouse Engelbreth-Holm-Swarm (EHS) sarcoma as described (6), and dissolved in sterile saline at 5 mg/ml and 10 mg/ml, respectively. Male Sprague-Dawley rats (250-300 gms; 3 months old; Harlan Sprague Dawley) were implanted with Alzet 2002 minipumps delivering the following solutions directly into hippocampus at a flow rate of 0.5 μl per hour for one week (7); 1) β/A4 (7.5 μl stock) & HSPG (92.5 μl stock), 6 animals; 2) β/A4 (7.5 μl stock) & HS GAGs (92.5 μl stock), 4 animals; 3) β/A4 (7.5 μl stock) & saline (92.5 μl), 6 animals; 4) HSPG only (100 μl), 4 animals; 5) HS GAGs only (100 μl), 4 animals; 6) saline only (100 μl), 4 animals; and 7) 35% acetonitrile (β/A4 vehicle, 7.5 μl) & saline (92.5 μl), 2 animals. High concentrations of these reagents were chosen to maximize possible effects following infusion into brain. The approximate quantity of β/A4 peptide infused into brain by the end of 1 week in each animal having β/A4 (1-40) as part of the infusate was 75 μg, at least 5 times the amount previously reported in rat models employing single acute injections (8, 9). After one week of continuous infusion, rats were sacrificed by overdose with pentobarbital and perfused with 100 ml of saline followed by 150 ml of 4% paraformaldehyde buffered with phosphate (pH 7.4), postfixed for 24 hours and transferred to phosphate buffered saline for paraffin embedding. Once embedded, consecutive 6 μm serial sections were cut and placed on poly-D-lysine coated slides. Two additional animals in the β/A4 only and the β/A4 & HSPG groups were processed for electron microscopy as described (10).\nDetection of infused macromolecules was monitored using two polyclonal antibodies against synthetic β/A4 (either against β/A4 1-28 or 1-40) (13), and two monoclonal antibodies recognizing either HS GAGs (HK-249) (14) or the core protein of perlecan (HK-102) (15). Additionally, two polyclonal antibodies recognizing the core protein of perlecan (17) assessed effects of infused macromolecules (16) on endogenous brain HSPGs. Detection of other AD-like markers included Alz-50 antibody immunostaining (18), and silver staining by the modified Bielschowsky method (19). Possible inflammation-associated amyloid protein involvement was monitored by AA amyloid protein immunostaining (20). The presence of other cell types such as astrocytes was detected by immunostaining with a polyclonal antibody to glial fibrillary acidic protein (GFAP) (1:10,000 dilution; Dako), whereas microglia/macrophage infiltration was detected using a rat monoclonal antibody known as ED1 (1:2500 dilution; Serotec). For all immunostaining, negative controls consisted of using Tris-buffered saline (TBS) instead of the primary antibody, and/or preabsorption experiments using the primary antibody in the presence of excess antigen. In order to quantify possible staining and/or immunostaining differences between the various infusion groups, slides were scored blindly by two independent investigators as described (21) (Table 1; see FIG. 35).\n7. Rats were anesthetized with pentobarbital (50 mg/kg) and a 27 gauge steel cannula was stereotactically implanted into the hippocampus using bregma as reference point (AP −4.8; ML 3.5; DV 4), and secured to the skull by machine screws and dental acrylic. The cannula was connected via a 15 cm coil of vinyl tubing to a model 2002 osmotic minipump (Alzet Inc.) placed subcutaneously beneath the shoulder blades. […]"}}}
{"substance": "chondroitin-6-sulfate [reference compound]", "values": [{"measurement": "inhibition of binding of 125I-labeled HSPGs to the BAP (in words)", "setting": "[1]", "result": "not"}, {"measurement": "competition for binding of 125I-labeled HSPG to BAP", "setting": "[1]; at all concentrations except 100 uM", "result": "unable to compete"}]}
{"substance": "heparin [reference compound]", "values": [{"measurement": "IC50", "setting": "[1]; unlabeled competing ligand, BAP (1-28) affinity column, read-out: concentration at 50% inhibition of 125I-HSPG binding to BAP", "result": 10, "unit": "µM"}]}
{"substance": "heparitinase-digested ^125I-labeled HSPGs: 125I-labeled HSPG digested with a heparitinase/heparinase mixture (core protein)", "values": [{"measurement": "HSPGs still able to bind to the BAP column in comparison to undigested controls", "setting": "BAP (residues 1-28)", "result": 61, "unit": "%"}]}
{"substance": "high Mr HSPG of human lung fibroblasts: high Mr HSPG of human lung fibroblasts (Heremans et al. 1990)", "values": [{"measurement": "Kd", "setting": "fibronectin", "result": 0.002, "unit": "µM"}]}
{"substance": "synthetic BAP (residues 1-28): peptide corresponding to the extracellular domain of BAP (residues 1-28 of BAP or 597-624 of BAPP), Bachem", "values": [{"measurement": "BAP immunoreactivity at sites of HSPG accumulation after peptide pretreatment", "setting": "[2]; sections pretreated overnight at 4° C. with peptide", "result": "strong positive immunoreactivity"}, {"measurement": "change in BAP immunostaining", "setting": "[2]; sections pretreated with acetic acid or chondroitin ABC lyase", "result": "little to no decrease"}, {"measurement": "change in BAP immunoreactivity", "setting": "[2]; sections pretreated with nitrous acid or heparitinase/heparinase", "result": "some loss"}]}
{"substance": "β/A4 (1-40): synthetic β/A4 residues 1-40; Bachem California Inc.", "values": [{"measurement": "HSPG core protein immunostaining score versus groups where HSPG was part of the infusate", "setting": "[3]; 1-week infusion groups", "result": "not significantly different"}, {"measurement": "scoring of congo red staining", "setting": "[3]; 1-week infusion groups", "result": "significant increase"}, {"measurement": "scoring of thioflavin S fluorescence", "setting": "[3]; 1-week infusion groups", "result": "significant increase"}, {"measurement": "animals demonstrating deposition of congophilic amyloid material in brain", "setting": "[3]; 1 week continuous infusion into hippocampus", "result": "4 of 6"}, {"measurement": "animals with (endogenous) HSPG immunostaining", "setting": "[3]; 1 week, HSPG not part of the infusate", "result": "four"}]}
